Results published in US11801231B2, “Oral compositions and methods of use” (3M INNOVATIVE PROPERTIES COMPANY, priority 2017, dated 2023).

System: Streptococcus mutans biofilm
Assay: Biofilm disruption test (modified MBEC assay)
Assay type: cell-based, Streptococcus mutans (ATCC 25175)
Source text: In some embodiments, disclosed compositions can prevent, inhibit, disrupt, disperse, reduce the formation or maintenance of a biofilm in an area contacted with the composition. In some embodiments, a composition can prevent, inhibit, disrupt, disperse, reduce the formation or maintenance of a biofilm in a mouth of a user where the composition was applied to the mouth when compared to a mouth without the composition applied thereto. […] Preventing, inhibiting, disrupting, dispersing, reducing, controlling, or some combination thereof the formation or maintenance of biofilms can be measured using a modified version of the MBEC assay (described in ASTM E2799), which measures disruption of Streptococcus mutans biofilms grown on special pegs in a microtiter plate. […] The biofilm remaining on each peg following treatment is quantified by measuring the amount of fluorescently labeled bacteria that eluted from the pegs at the end of the treatment cycles (see example). […] Decreasing plaque buildup can be measured by a variety of methods in vivo including for example plaque scoring, dyeing of plaque, etc.
This method utilizes the high throughput MBEC assay system (Innovotech, Calgary, AB Canada). The method evaluates efficacy of a treatment in disrupting biofilm by quantifying the amount of fluorescent-labeled biofilm remaining on MBEC inoculator pegs after exposure to relevant treatment conditions. […]

Structure (SMILES): N=C(NCCCCCCNC(=N)NC(=N)Nc1ccc(Cl)cc1)NC(=N)Nc1ccc(Cl)cc1.O=C(O)[C@H](O)[C@@H](O)[C@H](O)[C@H](O)CO.O=C(O)[C@H](O)[C@@H](O)[C@H](O)[C@H](O)CO [0.1% CHG, chlorhexidine gluconate]
- Normalized Relative Fluorescence (%) (normalized to PBS negative control in the same plate, low value = more biofilm disruption): 3.8%
- Fluorescence intensity of Alexafluor 488-labeled S. mutans biofilm matrix (two 1-minute treatment cycles, biofilm eluted from MBEC pegs, ex 488 nm, em 525 nm): 1281 a.u.
